# According to US7737256B2, “Antibody against uPA/uPAR” (Fondazione Centro San Raffaele Del Monte Tabor, priority 2001, dated 2010):
# How the values were obtained:
# [1] = test system: HIV-1 in U1 cells; experiment: PMA-induced HIV-1 reactivation in U1 cells (RT activity); assay type: cell-based
# Description: Cell Lines p U1 cells were stimulated at the density of 2×10^5 cells per ml in RPMI 1640 (Whittaker M. A. Bioproducts, Walkerville, Md.) containing 10% FCS. Cells were preincubated with uPA, uPAR, suPA, R2, R3, R4, R5 antibodies for 20 min at 37° C. prior to addition of stimuli. U1 parental cell line U937 was used as a control in the transfection experiments. U937 cells were purchased from ATCC and maintained in RPMI 1640 medium in the presence of FCS before and after infection with the X4 HIV-1LAI/IIIB. For infection, cells were seeded at 2×10^5 cells/ml in 96-well flat bottomed plates (Falcon, Becton-Dickinson Labware, Lincoln Park, N.J.) and infected with 1−2×10^7 virus particles diluted from a stock of pelleted virus (Advanced Biotechnology, Inc., Columbia, Md.). After infection, 2 h at 37° C., cells were washed and resuspended in RPMI 1640 medium.
# Viral expression was monitored by determination of Mg^2+-dependent Reverse Trascriptase (RT) activity in culture supernatants (Poli, 1990). In particular, 5 microliters of supernatants was added to 25 microliters of a mixture containing poly(A), oligo(dT) (Pharmacia Fine Chemicals, Piscataway, N.J.), MgC12, and 32P-labeled deoxythymidine 5′-triphosphate (dTTP) (Amersham Corp., Arlington Heights, Ill.), and incubated for 2 h at 37°°C. 6 microliters of the mixture was spotted onto DE81 paper, air dried, washed five times in 2× SSC buffer, and two additional times in 95% ethanol. The paper was then dried and counted on a scintillation counter (LS 5000, Beckman Instruments, Inc., Fullerton, Calif.).
# For all experiments, culture supernatants were collected every day for five days, in the case of cell line, or every three days for infection of U937 and primary cells. Reagents were replenished every time culture medium was changed. Data representative of one out of three independent experiments are shown. Results are presented as means of triplicate cultures, and the error bar show the standard deviation from the mean.
# [2] = test system: THP-1 cells; experiment: chemotaxis of THP-1 cells (modified Boyden chambers); assay type: cell-based, human
# Description: (§1) Chemotaxis assays were performed as described (Degryse, 1999) with modified Boyden chambers using filters (5 μm pore size, Corning) treated with collagen I (100 μg/ml) and fibronectin (10 μg/ml, Boehringer Mannheim). 20,000-40,000 cells in serum-free DMEM were added to the upper well while the chemoattractants were added to the lower well. When present, antibodies or desensitizing molecules were pre-incubated with the cells for one hour and were then added to both wells of Boyden chambers during the chemotaxis assay. Migration lasted for […] in the case of THP-1 cells and 4-6 hours for the HEK293 or HEK293/FPRL1 cells. After migration at 37° C., cells remaining on the upper surface of filters were scraped off, the filters were fixed in methanol and stained in a solution of 10% (w/v) crystal violet in 20% (v/v) methanol. The experiments were performed in triplicate and the results presented represent the mean ±SD of the number of cells counted in ten high power fields per filter and are representative of at least three experiments. Random cell migration, i. e. migration in the absence of chemoattractant, was given the arbitrary value of 100%.
# [3] = test system: HEK293 cells; experiment: chemotaxis of HEK293 cells; assay type: cell-based, human; conditions: untransfected HEK293, FIG. 10
# Description: (§2) The THP-1 cells used in the present example have been previously described (Resnati, 1996). Human HEK293 cells were kindly donated by Dr. Hal Chapman and human HEK293/FPRL1 from Dr. J. M. Wang. […] HEK293/FPRL1 cells have been generated by transfection of FPRL1 cDNA in HEK293 cells (Murphy, 1996).
# as §1, with “Random cell migration, i. e. migration in the absence of chemoattractant, was given the arbitrary value of 100%.” left out
# [4] = chemotaxis-promotion by uPAR peptides (data not shown); assay type: cell-based
# [5] = target: FPRL1/LXA4R, seven trans-membrane G-protein-coupled receptor (human) (UniProt P25090); experiment: cell-based or functional assay
# [6] = test system: HEK293/FPRL1 cells; experiment: chemotaxis of HEK293 transfected with FPRL1/LXA4R; assay type: cell-based, human; conditions: FIG. 10
# Description: as §2
# as §1, with “Random cell migration, i. e. migration in the absence of chemoattractant, was given the arbitrary value of 100%.” left out
# [7] = test system: Human peripheral blood monocytes; experiment: chemotaxis of peripheral blood monocytes; assay type: cell-based; conditions: fresh human monocytes, FIG. 13
# Description: as §1
# THP-1 cells have been described before (Resnati, 1996). […] The purity of the separated populations was determined by flow cytometry analyses with anti-CD14 monoclonal antibodies.
# Sequence of UniProt P25090 (P25090 whole entry): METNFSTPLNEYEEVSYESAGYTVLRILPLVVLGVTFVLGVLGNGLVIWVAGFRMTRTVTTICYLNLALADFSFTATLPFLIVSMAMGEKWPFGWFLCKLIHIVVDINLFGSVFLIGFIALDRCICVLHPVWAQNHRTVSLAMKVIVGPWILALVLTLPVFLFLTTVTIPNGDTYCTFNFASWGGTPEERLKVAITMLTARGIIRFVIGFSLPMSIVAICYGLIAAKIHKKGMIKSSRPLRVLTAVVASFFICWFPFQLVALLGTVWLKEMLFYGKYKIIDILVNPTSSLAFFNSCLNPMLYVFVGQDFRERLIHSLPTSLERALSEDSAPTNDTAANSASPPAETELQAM
compound,measurement,setting,value
TGF-β [reference compound],inhibition of PMA-induced HIV-1 replication/expression,"[1]; pro-uPA 10 nM, TGF-beta 5 ng/ml, alone or combined, FIG. 4C",60%
"CSCC[C@H](NC=O)C(=O)N[C@@H](CC(C)C)C(=O)N[C@@H](Cc1ccccc1)C(=O)O [fMLP, formyl-methionyl-leucyl-phenylalanine]",de-sensitization against D2D388-279 and ATF,[2]; 20 μM,de-sensitized
same,effect on MCP-1 chemotaxis (de-sensitization),"[2]; THP-1 cells, FIG. 9B",did not affect
same,IC50,"[2]; THP-1 cells, FIG. 9B, read-out: concentration inhibiting D2D388-279 chemotaxis by 50% (de-sensitization)",10 to 20 µM
same,effect on MCP-1 chemotaxis (de-sensitization),"[2]; THP-1 cells, very high concentrations (200 μM)",marginally
ATF: amino terminal fragment of uPA with full receptor-binding and no enzymatic activity,effect on PMA-induced HIV-1 expression,"[1]; PMA 10 nM, FIG. 2",fully reproduces the pro-uPA effect
same,induction of chemotaxis,[2]; THP-1 cells,induce chemotaxis
same,chemotactic response of the cells,[3],do not respond
AVTYSRSRYLEC (listed as Homo sapiens),chemotaxis-promotion,[4],active
same,chemotaxis-promotion after cleavage with plasmin,"[4]; peptide cleaved with plasmin, data not shown",destroyed the activity
suPAR: recombinant soluble uPAR which specifically binds pro-uPA,effect on the inhibition of PMA-induced HIV-1 expression by pro-uPA,"[1]; with pro-uPA, FIG. 2D, FIG. 3",blocked
SRSRY (listed as Homo sapiens),chemotaxis-promotion,[4],active
"D2D388-278, D2D3 fragment obtained by cleavage of suPAR with chymotrypsin (from UniProt Q03405 110-300) (receptor)",chemotaxis of HEK293 cells transfected with FPRL1/LXA4R,[5],0.1 nM
"D2D388-279: chymotrypsin-cleaved, soluble, purified form of uPAR endowed with potent chemotactic activity",chemotactic response of the cells,[3],do not respond
same,chemotactic response of the cells,[6],respond well
same,concentration of maximum chemotactic response,[6],about 0.1 nM
same,induction of chemotaxis,[7],induce chemotaxis
MCP-1: monocytes chemotactic protein-1 [reference compound],induction of chemotaxis,[2]; THP-1 cells,induce chemotaxis
same,induction of chemotaxis,[7],induce chemotaxis
